Data on five compounds can be found in PMC12169669, “Regio- and Stereoselective Synthesis of Nitro-fatty Acids as NRF2 Pathway Activators Working under Ambient or Hypoxic Conditions” (Journal of Medicinal Chemistry, 2025).

Data set [1] can be described thus: Cytotoxicity assay (sulforhodamine B, SRB). The settings on record: mouse, mouse embryonic fibroblasts (MEFs; STO). The format is cell-based. How it is done:
For cytotoxicity experiments, mouse embryonic fibroblasts (MEFs; STO, 86032003, Sigma-Aldrich) were cultured in DMEM (41966-029, Thermo Fisher Scientific) + 5% FBS and were seeded at 10,000 cells per well in a 96-well plate and allowed to adhere for 8 h under atmospheric conditions. Plates were then placed in incubators with the specified oxygen concentrations (21%, 4%, or 1%) and incubated overnight. The following day, the medium was replaced with fresh medium (+5% FBS) adjusted to match the target oxygen concentrations and containing the test compounds (1–100 μM). After 24 h of incubation, adherent cells were stained using a modified sulforhodamine B (SRB) assay as described in. SRB was obtained from Sigma-Aldrich (S1402). Briefly, the medium was aspirated, and cells were fixed with 10% cold trichloroacetic acid. After washing twice with distilled water, the cells were stained with 0.1% SRB dissolved in 1% acetic acid. The cells were then washed 3–4 times with 1% acetic acid and allowed to dry. The stain was solubilized with 10 mM unbuffered TRIS base, and absorbance was measured at 540 nm (Infinite M200 Pro, Tecan, Austria). The cell viability of treated samples was calculated as a percentage of nontreated controls, and IC50 values were determined (see Statistics). According to the IC50 values, a nontoxic 2 μM concentration of NO2FAs was used in further in vitro experiments. For detailed results, see Supporting Information Figure S1 and Table S3. Values are presented as arithmetic means ± standard deviations (SD), unless otherwise specified. Half-maximal inhibitory concentration (IC50) values were calculated using four-parameter logistic regression (dose vs response). For Western blot analyses, one-way ANOVA with Dunnett’s multiple comparisons test was performed against control samples. The significance level was set at p < 0.05. Statistical analyses were conducted using GraphPad Prism v10.4 (GraphPad Software, www.graphpad.com). Statistical methods and the number of experiments are indicated in the figure legends. page 9: Supporting information S9 Cytotoxicity of tested NO2FA derivatives (Figure S1) 1 10 100 0 50 100 150 21% O2 Concentration (µM) % of control 1 10 100 0 50 100 150 4% O2 Concentration (µM) % of control 1 10 100 0 50 100 150 1% O2 Concentration (µM) % of control 10-NO2OA 9-NO2OA 10-NO2LA 9-NO2cLA 10-NO2SA A B C Figure S 1. Cytotoxicity of tested NO2FA derivatives. Mouse embryonic fibroblasts (MEFs) were cultured under varying oxygen conditions (21, 4, and 1%) and treated for 24 hours with the tested NO₂FAs, after which adherent cells were stained with sulforhodamine B. Results are presented as a percentage of control cells across different oxygen culture conditions (A–C). IC₅₀ values were determined from dose-response curves (see Supplementary Table S3). Data are expressed as mean ± SD from three independent experiments (n = 3). (1 picture or pasted object on this page, not shown here) page 11: Supporting information Calculated IC50 values of tested NO2FA derivatives (Table S3) Table S 3. Calculated IC50 values of tested NO2FA derivatives. IC 21% O2 4% O2 1% O2 50 Value SEM Value SEM Value SEM 10-NO2OA 6.28 0.19 5.74 0.20 8.19 0.21 9-NO2OA 9.47 0.57 7.75 0.54 6.93 0.32 10-NO2LA 11.78 0.41 11.17 0.26 13.79 1.02 9-NO2cLA 18.03 1.96 17.19 2.26 14.31 1.82 10-NO2SA ≈100 >100 >100 IC₅₀ values were derived from dose-response curves using four-parameter logistic regression across different oxygen culture conditions. Data are presented as mean and SEM values from three independent experiments (n = 3). The IC₅₀ values calculated for cultures in 21% oxygen indicate an increasing cytotoxic potential in the order: 10-NO₂OA > 9-NO₂OA > 10-NO₂LA > 9-NO₂cLA. […] In 1% oxygen, the order of cytotoxic potential shifted slightly to 9-NO₂OA > 10-NO₂OA > 10-NO₂LA > 9-NO₂cLA. However, differences in IC₅₀ values across the oxygen conditions for each NO₂FA derivative ranged from ca. 1 to 3 µM. […]

The next data set concerns NRF2. Kind of data set: NRF2 translocation assay (nuclear fraction, Western blot). The class given is cell-based, mouse. The settings on record: BMCs, 2 μM, 1 h, 1% oxygen; for translocation of NRF2 to the nucleus, fold change relative to control: nuclear fraction. The procedure: For the NRF2 translocation assays, 5.5 × 10^6 BMCs were incubated in 0.5 mL of complete medium with 2 μM NO2FAs or the control for 1 h in 1.5 mL microtubes, but only at 1% oxygen. Cytosol, membrane and nuclear cell compartments were isolated with a Cell Fractionation Kit (9038, Cell Signaling Technology) according to the manufacturer’s instructions. Equal volumes of nuclear lysates (20 μL/well) were loaded onto 7–15% SDS-polyacrylamide gels. Histone H3 was used as the loading control for the nuclear fraction.
5 Subcellular localization of NRF2. NO 2 FA derivatives promote nuclear translocation of NRF2 in mouse BMCs. BMCs were cultured under 1% oxygen conditions and treated for 1 h with 2 μM of 10-NO 2 OA, 10-NO 2 LA, or 10-NO 2 SA. A cell fractionation kit was used to isolate the nuclear fraction (A), followed by the detection of NRF2 and histone H3 (used as a control nuclear protein). Western blot results (A) are shown as the fold change relative to control cells. Data are expressed as mean ± SD from two independent experiments (n = 2). Statistical analysis was performed using one-way ANOVA with Dunnett’s multiple comparisons test (* p < 0.05; *** p < 0.001). (B) Representative immunocytochemistry staining of BMCs with NRF2 antibody. BMCs were cultured in 1% oxygen followed by NRF2 and nuclei (DAPI) staining. Treatment with 10-NO2OA increased the colocalization of NRF2 with the nucleus (scale bar: 20 μm).
In general terms: Immunoblotting shows a protein as a band on a membrane.

Consider `CCCCCCCC/C=C(\CCCCCCCC(=O)O)[N+](=O)[O-]` [9-NO2OA, (9E)-9-Nitro-oleic Acid], for which the IC50 at 24 h in data set [1] (1% O2) is 6.93 ± 0.32 µM; in data set [1] (4% O2), 7.75 ± 0.54 µM; in data set [1] (21% O2) it was 9.47 ± 0.57 µM.
In the same order, the values of `CCCCCC/C=C/C=C(\CCCCCCCC(=O)O)[N+](=O)[O-]` [9-NO2cLA, (9E,11E)-9-Nitro Conjugated Linoleic Acid] are 14.3 ± 1.82 µM, 17.2 ± 2.26 µM and 18 ± 1.96 µM.
For the compound `CCCCC/C=C\C/C(=C\CCCCCCCC(=O)O)[N+](=O)[O-]` [10-NO2LA, (9E,12Z)-10-Nitro Linoleic Acid], the figures for the IC50 at 24 h in data set [1] (1% O2), in data set [1] (4% O2) and in data set [1] (21% O2) were 13.8 ± 1.02 µM, 11.2 ± 0.26 µM and 11.8 ± 0.41 µM, respectively. Further, the “translocation of NRF2 to the nucleus, fold change relative to control” value (“translocation … fold change relative to control” for short) with NRF2 is listed as “significantly increased”.
As for `CCCCCCCC/C(=C\CCCCCCCC(=O)O)[N+](=O)[O-]` [10-NO2OA, (9E)-10-Nitro-oleic Acid], the IC50 at 24 h in data set [1] (1% O2) stood at 8.19 ± 0.21 µM; in data set [1] (4% O2), 5.74 ± 0.2 µM; in data set [1] (21% O2), 6.28 ± 0.19 µM. In addition, the “NRF2 translocation activity relative to 10-NO2LA” value in the data set with NRF2 is “ca. 1.7 fold”. The “translocation … fold change relative to control” value in the data set with NRF2 is “significantly increased”.
For `CCCCCCCCC(CCCCCCCCC(=O)O)[N+](=O)[O-]` (centres unmarked) [10-NO2SA, 10-Nitro Stearic acid], the IC50 at 24 h in data set [1] (1% O2) is over 100 µM; in data set [1] (4% O2), over 100 µM; in data set [1] (21% O2), about 100 µM; in data set [1] (under all three oxygen conditions (21, 4, 1%)), at least 100 µM. The “translocation … fold change relative to control” value with NRF2 is listed as “no effects”.

For orientation: IC50 means the concentration needed to halve the response being measured.
